Data set [1] deals with Rb phosphorylation. To be noted: cited from earlier work.
In data set [2] the test system is cardiac fibrosis. The data set can be described thus: Cardiac fibrosis by Masson's trichome staining in PE rat model. The data set is classed as in vivo, Sprague Dawley rat. On the procedure:
(§1) Animal Model Preparation. Sprague Dawley rats were continuously treated with phenylephrine (PE), an α-adrenergic agonist that causes vasoconstriction leading to increased afterload and decreased ventricular function, to create a left-ventricular dysfunction animal model. […] For chronic infusion of phenylephrine, Alzet® mini-osmotic pumps (2002, Durect® Corp) containing Phenylephrine (PE) (10 mg/kg/day) or PBS vehicle were surgically implanted dorsally and subcutaneously in each Sprague Dawley rat under isoflurane anaesthesia. The animals were allowed to develop left ventricular hypertrophy for 2 weeks following the osmotic pump implantation.
(§2) Echocardiography was performed, the animals were sacrificed at 3 weeks endpoint and the blood and tissue were harvested for further analysis.
The rat model was prepared as described in Example 12, and the cardiac tissue harvested at the end of the 3 weeks was prepared with Masson's trichome staining methodology, which is a histological technique used to visualize and assess connective tissue, particularly collagen, within biological samples.

The subject of data set [3] is cardiac angiogenesis (CD31). Nature of the data set: Cardiac angiogenesis by CD31 staining in PE rat model. In kind it is in vivo, Sprague Dawley rat. As for the experimental part:
as §1, §2
The rat model was prepared as described in Example 12, and the cardiac tissue harvested at the end of the 3 weeks was prepared for CD31 Staining, which is a histological technique used to visualize and assess angiogenesis in cardiac tissue.

The subject of data set [4] is cardiomyocytes. The data set can be described thus: Overall observation on remodeling of treated cardiomyocytes. In kind it is cell-based.
For data set [5], the system named is CDK4. The data set can be described thus: pCDK4 Thr172 immunofluorescence and remodeling in primary cardiomyocytes. The data set is classed as cell-based. The text has this: Post treatment, the cells were washed, fixed, and were subjected to sequential staining of primary antibodies a Actinin and phospho-CDK4 (Thr172). The images were acquired using the Zeiss AxioVision SE64 Imaging software and analyzed using the ImageJ2 software.
Immunofluorescence was used to detect α-actinin, pCDK4 Thr172, and nuclei were stained with DAPI. […] The nuclear fluorescent intensity of pCDK4 Thr172 using the ImageJ software. The data are represented as Mean±Standard deviation.

Data set [6] deals with Cyclin D1/CDK4. The settings on record: role: inhibitor; cited from earlier work.
Data set [7] relates to neonatal rat ventricular cardiomyocytes. The data set can be described thus: Calcium transients (Fura2-AM) in neonatal rat ventricular cardiomyocytes. In kind it is cell-based. The settings on record: for contractility / contractile function: inferred from peak calcium transient, AUC and time to peak. As for the experimental part:
Method: Freshly isolated wildtype neonatal rat ventricular cardiomyocytes were plated onto laminin coated glass coverslides, rinsed once and then loaded with 1 μM Fura2-AM (Life Technologies) for 15 min at 37 °C. After washing the cells thrice with Tyrode solution, measuring chambers were transferred onto a Nikon Eclipse TE2000-U microscope equipped with a fluorescence detection system (IonOptix). Ca^2+ transient values were recorded according to the corresponding FRET experiments. F340/F380 values in Fura2-AM experiments were calculated from the ratios of 510 nm emission light measured at 340 and 380 nm excitations.

For data set [8], the system named is CDK6. To be noted: role: inhibitor; cited from earlier work.
The subject of data set [9] is phenylephrine induced left ventricular hypertrophy. The settings on record: LV; HF markers; cited from earlier work.
The subject of data set [10] is aurora kinase B. The data set can be described thus: pAurkB S727 immunofluorescence and remodeling in NRVM. The data set is classed as cell-based, neonatal rat. The settings on record: PE 100 μM. On the procedure: Immunofluorescence was performed to validate and assess the effect of aurora B kinase inhibitor on cardiomyocyte remodeling. NRVMs were plated at a density of 2.5×10^4 cells onto 25 mm diameter collagen coated coverslip. Primary cardiomyocytes were incubated with control serum-free medium (Ctrl, SF medium), hCT1 (0.5 nM), PE (100 μM), AZD1152-HQPA (1.5 μM) and assessed for aurora kinase B activation using pAurkB s727 antibody staining. The cells were treated with a combination of PE and AZD1152 HQPA where the cells were stimulated with the drug for 4 hours following the PE treatment for 24 hours.
Post treatment, the cells were washed, fixed, and were subjected to sequential staining of primary antibodies a Actinin and phospho-AurkB (S727). The images were acquired using the Zeiss AxioVision SE64 Imaging software and analyzed using the ImageJ2 software. Immunofluorescence was used to detect α-actinin, pAurkb S727, and nuclei were stained with DAPI.

The subject of data set [11] is phospho-Histone 3 (Ser10). The data set can be described thus: phospho-Histone 3 (pH3 Ser10) staining in NRVM. The data set is classed as cell-based, neonatal rat. To be noted: PE. As for the experimental part: A one-way ANOVA test performed to assess statistical significance across treatment groups.
The effect of AZD1152-HQPA on cardiac remodeling was further validated using the phospho-Histone 3 (pH3 Ser10) staining which is the downstream target of aurora kinase B. The NRVMs were plated at a density of 2.5×10^4 cells onto 25 mm diameter collagen coated coverslip. The cells were treated with controls (hCT1, PE), AZD1152-HQPA followed by a combination of PE and AZD1152-HQPA.
Post treatment, the cells were washed, fixed, and were subjected to sequential staining of primary antibodies a Actinin and phospho-Histone 3 (Ser10). The images were acquired using the Zeiss AxioVision SE64 Imaging software and analyzed using the ImageJ software. […] The data are represented as Mean±Standard deviation.

In data set [12] the test system is cardiac fibrosis. To be noted: phenylephrine, reported; cited from earlier work.
Setting [13] is: PE, compared to control sham animals.

The text below walks through data of US20260345605A1, “THERAPEUTIC AGENTS FOR HEART FAILURE” (Ottawa Hospital Research Institute, priority 2023, published 2026).

For `CCN1CCN(Cc2ccc(Nc3ncc(F)c(-c4cc(F)c5nc(C)n(C(C)C)c5c4)n3)nc2)CC1` [LY2835219], in data set [1], the Rb phosphorylation entry is “inhibits Rb phosphorylation” and the cell cycle arrest entry is “G1 arrest”. For the same molecule, in data set [2] (LY2835219 in animals subjected to PE treatment), the cardiac fibrosis result was “did reduce fibrosis”. For the same molecule, the cardiac fibrosis result in data set [2] (LY2835219 treatment alone) is on record as “did not induce fibrosis”. For the same molecule, the cardiac angiogenesis entry in data set [3] (LY2835219 in PE treated animals) was “improve angiogenesis”. In addition, the cardiac angiogenesis result in data set [3] (LY2835219 treatment) is reported as “increased angiogenesis”. Also, the cardiomyocyte remodeling result in data set [4] is “adaptive and compensatory remodeling that resembles a physiologic growth response, adding sarcomeres in series”. Also, the CDK4 activation entry in [5] (LY2835219 1.5 μM) is “inhibited CDK4 activation”. Further, in data set [5] (drug for 4 hr following PE treatment for 24 hours), the “pathological effect of PE” value was “able to reverse the pathological effect of PE”. Also, the “inhibition of Cyclin D1/CDK4” value in data set [6] was “low nanomolar potency”. In [7] (compared to control, FIG. 11), the “area under the curve (AUC) of calcium transient” value is “increased AUC compared to control” and the calcium transient levels result was “increase in calcium transient levels compared to control”. Also, the “contractility / contractile function” value in data set [7] was “improved contractility by modest increase in peak calcium transient levels and AUC with modest decrease in time to attain those peak levels”. Also, the “inhibition of CDK6” value in [8] was “low nanomolar potency”.

As for `CNC[C@H](O)c1cccc(O)c1` [PE, phenylephrine], the cardiac fibrosis result in data set [2] (setting [13]) is recorded as “significant increase in cardiac fibrosis”. In [9], the “effect of phenylephrine on left ventricle (background)” value is “myocardial hypertrophy of the LV, increased LV weight, systolic dysfunction, and increased expression of HF markers atrial natriuretic peptide and brain natriuretic peptide”. For the same molecule, in data set [3] (setting [13]), the CD31 staining result is recorded as “significantly decreased CD31 staining”. Besides, in data set [10], the AurkB activation entry is “AurkB activation” and the cardiomyocyte remodeling result was “concentric hypertrophic remodeling was observed”. In data set [5] (PE 100 μM), the CDK4 activation entry is recorded as “CDK4 activation” and the cardiomyocyte remodeling entry is reported as “concentric hypertrophic remodeling was observed”. Besides, the “pH3 Ser10 staining” value in data set [11] is “Increased pH3 Ser10 staining”. Also, in data set [7] (compared to control, FIG. 11), the “area under the curve (AUC) of calcium transient” value is listed as “much higher AUC”, the calcium transient levels entry is “aberrant increase calcium transient levels” and the “time to peak calcium transient” value is “decreased time to peak calcium transient”. Besides, in [7], the “contractility / contractile function” value was “defective contractile function of cardiomyocytes”. Moreover, the “pathways involved in cardiac fibrosis (background)” value in data set [12] is on record as “stimulate pathways involved in cardiac fibrosis”.
